# Test results reported in US20100130515A1, “Polymorphs and solvates of a pharmaceutical and method of making” (BIOGEN IDEC INC., priority 2007, published 2010).
# Columns and labels:
# cataleptic responses = conditions: cited from earlier work
# [1] = Relative stability of forms A and B by vapour diffusion experiment (XRPD); assay type: physicochemical; conditions: NMP vapour, room temperature; for relative stability of the polymorphs: intimate mixture of forms A and B, followed by XRPD
# Method: The relative stabilities of the forms A and B was determined by a vapour diffusion experiment. Approximately equal amounts of the two forms were ground together to produce an intimate mixture. The mixture was packed into a silicon 510-cut recessed wafer XRPD holder and the XRPD of the mixture determined. The holder was then placed in a covered dish containing NMP (a known solvent 1) at room temperature. The mixture was re-examined from time to time to monitor any changes in the XRPD pattern.
# The traces from bottom to top in FIG. 8 were recorded initially, at 24 hours, at 3 days, at 1 week, at 10 days, and at 23 days; the topmost traces are a form A reference and a form B reference.
# Parkinsonian patients = conditions: cited from earlier work
# [2] = Relative stability of forms D and H by vapour diffusion experiment (XRPD); assay type: physicochemical; conditions: inferred from the higher desolvation temperature, XRPD results inconclusive
# From the text: The relative stabilities of Forms D and H was investigated by a vapour diffusion experiment. Approximately equal amounts of the two forms were combined to produce an intimate mixture. The mixture was packed into a silicon XRPD holder and the XRPD of the mixture determined. The holder was then placed in a covered dish containing THF:NMP approx. 90:10 v/v at room temperature. The mixture was re-examined from time to time to monitor any changes in the XRPD pattern.
# There was been no significant change in the XRPD traces over 12 days.
structure (smiles),measurement,setting,value
"CCCn1c(=O)c2c(nc(/C=C/c3ccc(OC)c(OC)c3)n2C)n(CCC)c1=O [KF 17837, E-8-(3,4dimethoxystyryl)-1,3-dipropyl-7-methylxanthine]",anticataleptic effects of a subthreshold dose of L-DOPA plus benserazide,cataleptic responses; in vivo,potentiated
same,catalepsy induced by haloperidol and reserpine,cataleptic responses; in vivo,reduced
same,cataleptic responses induced by intracerebroventricular CGS 21680,cataleptic responses; oral administration,significantly ameliorated
"Cc1cc(Cn2nnc3c(-c4ccco4)nc(N)nc32)ccc1N [Form B, 3-(4-amino-3-methylbenzyl)-7-(furan-2-yl)-3H-[1,2,3]triazolo[4,5-d]pyrimidin-5-amine]",time point by which the XRPD peaks characteristic of Form B disappear completely,[1]; mixture of forms A and B,≤ 23 days
"Cn1c(=O)c2[nH]cnc2n(C)c1=O [theophylline, 1,3-dimethylxanthine]",mean objective disability scores,"Parkinsonian patients; 15 Parkinsonian patients, up to 12 weeks, 150 mg/day",significant improvements
same,patients reporting moderate or marked subjective improvement,"Parkinsonian patients; of 15 Parkinsonian patients, up to 12 weeks, 150 mg/day",11
same,serum theophylline levels,"Parkinsonian patients; slow release oral preparation 150 mg/day, after one week",4.44 mg/L
"Cc1cc(Cn2nnc3c(-c4ccco4)nc(N)nc32)ccc1N [Form H, 3-(4-amino-3-methylbenzyl)-7-(furan-2-yl)-3H-[1,2,3]triazolo[4,5-d]pyrimidin-5-amine]",relative stability of the THF solvates,[2],more likely to be the stable form
"Cc1cc(Cn2nnc3c(-c4ccco4)nc(N)nc32)ccc1N [Form A, 3-(4-amino-3-methylbenzyl)-7-(furan-2-yl)-3H-[1,2,3]triazolo[4,5-d]pyrimidin-5-amine]",relative stability of the polymorphs,[1],more stable polymorph
same,relative stability of the polymorphs,[1]; listed as form A,more thermodynamically more stable
